Values of other authors as cited in patent publication US20240009304A1, “USE OF NGF ANTIBODY IN CIPN PAIN” (Dartsbio Pharmaceuticals Ltd., priority 2020, published 2024).

Assays:
CIPN pain = details: background statement; cited from earlier work
neuronal 5-HT reuptake = details: preclinical studies, background; cited from earlier work
neuronal NE reuptake = details: preclinical studies, background; cited from earlier work
dopamine reuptake = details: preclinical studies, background; cited from earlier work
[1] = tested on: dopaminergic receptor, adrenergic receptor, cholinergic receptor, histaminergic receptor, opioid receptor, glutamate receptor and GABA receptor; details: in vitro study, background; cited from earlier work
monoamine oxidase = details: background; cited from earlier work

SMILES	effect in the treatment of CIPN pain (CIPN pain)	neuronal 5-HT reuptake inhibition (neuronal 5-HT reuptake)	neuronal NE reuptake inhibition (neuronal NE reuptake)	inhibitory effect on dopamine reuptake (dopamine reuptake)	affinity with receptors [1]	inhibition of monoamine oxidase (monoamine oxidase)
CNCC[C@H](Oc1cccc2ccccc12)c1cccs1 [Duloxetine]	proven to be effective	strong inhibitor	strong inhibitor	relatively weak	no obvious affinity	does not inhibit
CN(C)CCC=C1c2ccccc2CCc2ccccc21 [amitriptyline]	do not seem to be more effective than placebo					
NCC1(CC(=O)O)CCCCC1 [gabapentin]	do not seem to be more effective than placebo					
CC(C)C[C@H](CN)CC(=O)O [pregabalin]	do not seem to be more effective than placebo					
